These results are taken from paper PMC12666569, “The Pseudomonas aeruginosa membrane histidine kinase BqsS/CarS directly senses environmental ferrous iron (Fe^2+)” (The Journal of Biological Chemistry, 2025).

One may read the stoichiometry N as the number of molecules, sites or subunits per partner or assembly.

In series [1] the target is T1, intact PaBqsS (Pseudomonas aeruginosa, UniProt Q9I0I2).
T1 construct: gene carS
Particulars: 5.0 mM Mg2+, 37 °C, SEC buffer pH 7.5, Fos-Chol-14; no added Fe2+.

Series [2] deals with the molecule itself. Nature of the series: SEC; cleaved, purified PaBqsS in detergent (Fos-Chol-14, also glyco-diosgenin (GDN)); HiLoad 16/600 Superose 6 pg; 50 mM Tris pH 7.5, 100 mM NaCl, 1 mM TCEP, 5% glycerol, 0.02% Fos-Chol-14. For orientation: SEC sorts molecules by how far they enter the pores of the column.

With `Nc1ncnc2c1ncn2[C@@H]1O[C@H](COP(=O)(O)OP(=O)(O)OP(=O)(O)O)[C@@H](O)[C@H]1O` [ATP], the specific activity result in series [1] is recorded as “We then tested the ATPase activity of intact PaBqsS purified in Fos-Chol-14”.

B1: Pseudomonas aeruginosa membrane histidine kinase BqsS/CarS, intact (enzyme)
chain: MRSIQRRLSVGLFAVLLVVGLVLAQTGLWLFDQGLRRYFAGNLREEAENLLVAMVRGPNGMQLDEQRLNPAFQRPYSGRYFVIELEKDTWRSRSLWDSELEVPHKKGLVQGLVDGPEEQRLLVFRGHYKRMGQKLRIVVAQDYTPILESFARVQWMGLGAGALALLLVLLLQRLTVRRSLRPLEEVRLQIAQLQQGQRSQLDNQAPEELEPLVEQINHLLAHTEETLKRSRNALGNLGHALKTPLAVLVSLAEREEMARQPELQQVLREQLEQIQQRLGRELGKARLVGEALPGAHFDCAEELPSLCDTLRLIHGPHLQVSWSAPPGLRLPWDREDLLEMLGNLLDNACKWADSEVRLTVAQGEGMVRLKVDDDGPGILPDQRQAVLERGTRLDEQVSGHGLGLGIARDIAEACGGRLSLEDSPLGGLRVSVELPLQKSGRAARA
notes: also called PaBqsS; intact PaBqsS; source: E. coli BL21 (DE3), membranes solubilized in detergent (Fos-Chol-14), purified (IMAC, TEV cleavage, second IMAC, SEC)
B1: the “stoichiometry N” value in series [2] came out at 2.
